Columns and labels:
[1] = molecular target: T1, KRas^WT (Homo sapiens, UniProt P01116); experiment: KRas binding assay (TR-FRET tracer displacement), KRas WT; conditions: TR-FRET tracer displacement, KRas WT
T1 construct: Biotinylated KRas (corresponding to amino acids 1-169, produced at Accelegan Inc.); biotin (biotinylated); purchased Accelegan Inc

[2] = molecular target: T2, KRas^G12A (Homo sapiens, UniProt P01116, G12A); experiment: KRas binding assay (TR-FRET tracer displacement), KRas G12A; conditions: TR-FRET tracer displacement, KRas G12A
T2 construct: Biotinylated KRas (corresponding to amino acids 1-169, produced at Accelegan Inc.); biotin (biotinylated); purchased Accelegan Inc

[3] = molecular target: T3, KRas^G12C (Homo sapiens, UniProt P01116, G12C); experiment: KRas binding assay (TR-FRET tracer displacement), KRas G12C; conditions: TR-FRET tracer displacement, KRas G12C
T3 construct: Biotinylated KRas (corresponding to amino acids 1-169, produced at Accelegan Inc.); biotin (biotinylated); purchased Accelegan Inc

[4] = molecular target: T4, KRas^G12D (Homo sapiens, UniProt P01116, G12D); experiment: KRas binding assay (TR-FRET tracer displacement), KRas G12D
T4 construct: Biotinylated KRas (corresponding to amino acids 1-169, produced at Accelegan Inc.); biotin (biotinylated); purchased Accelegan Inc

[5] = molecular target: T5, KRas^G12R (Homo sapiens, UniProt P01116, G12R); experiment: KRas binding assay (TR-FRET tracer displacement), KRas G12R
T5 construct: Biotinylated KRas (corresponding to amino acids 1-169, produced at Accelegan Inc.); biotin (biotinylated); purchased Accelegan Inc

[6] = molecular target: T6, KRas^G12S (Homo sapiens, UniProt P01116, G12S); experiment: KRas binding assay (TR-FRET tracer displacement), KRas G12S; conditions: TR-FRET tracer displacement, KRas G12S
T6 construct: Biotinylated KRas (corresponding to amino acids 1-169, produced at Accelegan Inc.); biotin (biotinylated); purchased Accelegan Inc

[7] = molecular target: T7, KRas^G12V (Homo sapiens, UniProt P01116, G12V); experiment: KRas binding assay (TR-FRET tracer displacement), KRas G12V
T7 construct: Biotinylated KRas (corresponding to amino acids 1-169, produced at Accelegan Inc.); biotin (biotinylated); purchased Accelegan Inc

[8] = molecular target: T8, KRas^G13D (Homo sapiens, UniProt P01116, G13D); experiment: KRas binding assay (TR-FRET tracer displacement), KRas G13D; conditions: TR-FRET tracer displacement, KRas G13D
T8 construct: Biotinylated KRas (corresponding to amino acids 1-169, produced at Accelegan Inc.); biotin (biotinylated); purchased Accelegan Inc

[9] = molecular target: T9, KRas^Q61H (Homo sapiens, UniProt P01116, Q61H); experiment: KRas binding assay (TR-FRET tracer displacement), KRas Q61H; conditions: TR-FRET tracer displacement, KRas Q61H
T9 construct: Biotinylated KRas (corresponding to amino acids 1-169, produced at Accelegan Inc.); biotin (biotinylated); purchased Accelegan Inc

[10] = tested on: KRas-mediated phosphorylation of ERK in AsPC-1 cells; experiment: Inhibition of KRas-mediated phosphorylation of ERK (Cisbio HTRF pERK), AsPC-1 cells; format: cell-based; conditions: Homo sapiens, ASPC1, AsPC-1 cells; HTRF pERK
In short: (§1)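 Phosphorylated ERK was quantified by HTRF using d2-conjugate and Cryptate antibodies added to lysates for 2 hrs at room temperature.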

[11] = tested on: KRas-mediated phosphorylation of ERK in H727 cells; experiment: Inhibition of KRas-mediated phosphorylation of ERK (Cisbio HTRF pERK), H727 cells; format: cell-based; conditions: Homo sapiens, NCI-H727, H727 cells; HTRF pERK
In short: as §1

T4 sequence (P01116 1-169 isoform P01116-2 G12D): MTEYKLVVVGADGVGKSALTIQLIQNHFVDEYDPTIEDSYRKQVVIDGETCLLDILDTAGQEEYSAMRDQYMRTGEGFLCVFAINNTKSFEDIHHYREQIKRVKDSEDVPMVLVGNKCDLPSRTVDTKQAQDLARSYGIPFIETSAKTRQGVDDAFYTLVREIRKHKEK
T9 sequence (P01116 1-169 isoform P01116-2 Q61H): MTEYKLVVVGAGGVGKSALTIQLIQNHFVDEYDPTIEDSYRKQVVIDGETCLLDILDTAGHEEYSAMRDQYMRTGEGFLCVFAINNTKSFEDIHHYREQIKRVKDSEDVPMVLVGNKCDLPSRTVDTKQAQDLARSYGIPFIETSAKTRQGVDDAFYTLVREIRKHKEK
T3 sequence (P01116 1-169 isoform P01116-2 G12C): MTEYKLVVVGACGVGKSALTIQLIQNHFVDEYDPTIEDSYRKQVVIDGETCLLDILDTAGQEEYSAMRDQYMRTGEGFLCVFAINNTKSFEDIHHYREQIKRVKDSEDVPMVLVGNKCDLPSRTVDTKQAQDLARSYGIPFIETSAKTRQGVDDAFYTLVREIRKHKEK
T7 sequence (P01116 1-169 isoform P01116-2 G12V): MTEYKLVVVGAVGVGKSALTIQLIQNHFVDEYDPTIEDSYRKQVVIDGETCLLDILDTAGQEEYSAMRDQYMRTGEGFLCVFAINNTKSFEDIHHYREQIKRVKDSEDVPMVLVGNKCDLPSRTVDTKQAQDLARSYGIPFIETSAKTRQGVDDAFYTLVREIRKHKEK
T1 sequence (P01116 1-169 isoform P01116-2): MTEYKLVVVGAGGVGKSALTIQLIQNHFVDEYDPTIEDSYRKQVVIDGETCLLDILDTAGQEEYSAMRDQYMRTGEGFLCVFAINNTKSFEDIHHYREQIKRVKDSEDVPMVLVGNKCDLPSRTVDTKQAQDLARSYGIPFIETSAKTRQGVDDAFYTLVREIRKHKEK
T2 sequence (P01116 1-169 isoform P01116-2 G12A): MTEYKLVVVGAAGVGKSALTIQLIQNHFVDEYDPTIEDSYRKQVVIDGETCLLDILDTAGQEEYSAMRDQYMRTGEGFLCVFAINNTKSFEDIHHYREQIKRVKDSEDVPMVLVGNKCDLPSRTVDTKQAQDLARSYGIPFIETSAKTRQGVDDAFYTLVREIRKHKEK
T8 sequence (P01116 1-169 isoform P01116-2 G13D): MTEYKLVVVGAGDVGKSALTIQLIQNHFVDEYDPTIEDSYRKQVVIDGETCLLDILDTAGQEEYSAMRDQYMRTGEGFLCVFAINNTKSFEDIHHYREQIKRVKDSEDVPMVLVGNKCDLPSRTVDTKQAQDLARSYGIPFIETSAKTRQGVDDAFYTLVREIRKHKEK
T5 sequence (P01116 1-169 isoform P01116-2 G12R): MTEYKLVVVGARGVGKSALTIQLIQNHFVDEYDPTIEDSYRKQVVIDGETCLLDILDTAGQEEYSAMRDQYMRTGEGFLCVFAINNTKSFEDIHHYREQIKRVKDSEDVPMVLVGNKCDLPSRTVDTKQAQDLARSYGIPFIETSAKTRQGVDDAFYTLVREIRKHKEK
T6 sequence (P01116 1-169 isoform P01116-2 G12S): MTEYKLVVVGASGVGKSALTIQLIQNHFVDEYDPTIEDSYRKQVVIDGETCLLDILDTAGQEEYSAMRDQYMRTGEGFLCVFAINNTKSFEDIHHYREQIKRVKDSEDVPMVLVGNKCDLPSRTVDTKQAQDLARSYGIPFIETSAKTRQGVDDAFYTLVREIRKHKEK

IC50 [1] [nM]	IC50 [2] [nM]	IC50 [3] [nM]	IC50 [4] [nM]	IC50 [5] [nM]	IC50 [6] [nM]	IC50 [7] [nM]	IC50 [8] [nM]	IC50 [9] [nM]	IC50 [10] [nM]	IC50 [11] [nM]	SMILES
9	10	7	4	11	9	5	8	6	2630	3160	CC1(O)COCCN(c2nc(OCC34CCCN3CCC4)nc3c(F)c(-c4cc(O)cc(Cl)c4C4CC4)ncc23)C1 (racemic) [Example 740, rac-(R)-4-(7-(3-chloro-2-cyclopropyl-5-hydroxyphenyl)-8-fluoro-2-((tetrahydro-1H-pyrrolizin-7a(5H)-yl)methoxy)pyrido[4,3-d]pyrimidin-4-yl)-6-methyl-1,4-oxazepan-6-ol]
965	763	812	1610	441	494	410	1120	1210	> 10000	> 10000	Cc1cc2[nH]ncc2c(-c2ncc3c(N4CC5CC(O)C(C5)C4)nc(OCC45CCCN4CCC5)nc3c2F)c1C (centres unmarked) [Example 725, 3-(7-(5,6-dimethyl-1H-indazol-4-yl)-8-fluoro-2-((tetrahydro-1H-pyrrolizin-7a(5H)-yl)methoxy)pyrido[4,3-d]pyrimidin-4-yl)-3-azabicyclo[3.2.1]octan-6-ol]
145	242	208	58	344	68	131	138	177	> 10000	> 10000	Cc1cc2[nH]ncc2c(-c2ncc3c(N4CC5C(=O)NC(=O)C5C4)nc(OCC45CCCN4CCC5)nc3c2F)c1C (centres unmarked) [Example 726, 5-(7-(5,6-dimethyl-1H-indazol-4-yl)-8-fluoro-2-((hexahydro-1H-pyrrolizin-7a-yl)methoxy)pyrido[4,3-d]pyrimidin-4-yl)tetrahydropyrrolo[3,4-c]pyrrole-1,3(2H,3aH)-dione]
657	516	421	634	520	540	333	888	947	> 10000	> 10000	Cc1cc2[nH]ncc2c(-c2ncc3c(N4CCCC5(CC(O)C5)C4)nc(OCC45CCCN4CCC5)nc3c2F)c1C (centres unmarked) [Example 727, 6-(7-(5,6-dimethyl-1H-indazol-4-yl)-8-fluoro-2-((hexahydro-1H-pyrrolizin-7a-yl)methoxy)pyrido[4,3-d]pyrimidin-4-yl)-6-azaspiro[3.5]nonan-2-ol]
151	137	146	3890	12000	121	5850	146	196	–	–	Cc1cc2[nH]nnc2c(-c2ncc3c(N4CCC[C@@](C)(O)C4)nc(OC[C@@]45CCCN4C[C@H](F)C5)nc3c2F)c1C [Example 821, (3R)-1-(7-(5,6-dimethyl-1H-benzo[d][1,2,3]triazol-4-yl)-8-fluoro-2-(((2R,7aS)-2-fluorotetrahydro-1H-pyrrolizin-7a(5H)-yl)methoxy)pyrido[4,3-d]pyrimidin-4-yl)-3-methylpiperidin-3-ol]
5420	4980	4080	2180	9670	4660	3430	5410	5660	–	–	Cc1cc2[nH]nnc2c(-c2ncc3c(N4CCOC[C@@](C)(O)C4)nc(OCC45CCCN4CCC5)nc3c2F)c1C [Example 822, (6S)-4-(7-(5,6-dimethyl-1H-benzo[d][1,2,3]triazol-4-yl)-8-fluoro-2-((tetrahydro-1H-pyrrolizin-7a(5H)-yl)methoxy)pyrido[4,3-d]pyrimidin-4-yl)-6-methyl-1,4-oxazepan-6-ol]
1420	1430	1300	2220	1380	1370	922	1270	1390	–	–	Cc1cc2[nH]nnc2c(-c2ncc3c(N4CCCC5(C4)NC(=O)NC5=O)nc(OCC45CCCN4CCC5)nc3c2F)c1C (centres unmarked) [Example 823, 7-(7-(5,6-dimethyl-1H-benzo[d][1,2,3]triazol-4-yl)-8-fluoro-2-((tetrahydro-1H-pyrrolizin-7a(5H)-yl)methoxy)pyrido[4,3-d]pyrimidin-4-yl)-1,3,7-triazaspiro[4.5]decane-2,4-dione]
4590	3770	3200	17100	6410	2940	4550	3880	4610	–	–	Cc1cc2[nH]nnc2c(-c2ncc3c(N4C[C@@H]5C[C@H](C4)[C@H](O)C5)nc(OCC45CCCN4CCC5)nc3c2F)c1C [Example 832, (1R,5R,6R)-3-(7-(5,6-dimethyl-1H-benzo[d][1,2,3]triazol-4-yl)-8-fluoro-2-((tetrahydro-1H-pyrrolizin-7a(5H)-yl)methoxy)pyrido[4,3-d]pyrimidin-4-yl)-3-azabicyclo[3.2.1]octan-6-ol]
3830	5130	4490	1080	9160	1860	3540	2820	3670	–	–	Cc1cc2[nH]nnc2c(-c2ncc3c(N4CC5C(=O)NC(=O)C5C4)nc(OCC45CCCN4CCC5)nc3c2F)c1C (centres unmarked) [Example 833, 5-(7-(5,6-dimethyl-1H-benzo[d][1,2,3]triazol-4-yl)-8-fluoro-2-((tetrahydro-1H-pyrrolizin-7a(5H)-yl)methoxy)pyrido[4,3-d]pyrimidin-4-yl)tetrahydropyrrolo[3,4-c]pyrrole-1,3(2H,3aH)-dione]
3780	2380	1630	153	2910	1260	743	4060	3810	–	–	Cc1cc2[nH]nnc2c(-c2ncc3c(N4CCCn5nc(C(=O)N(C)C)cc5C4)nc(OCC45CCCN4CCC5)nc3c2F)c1C [Example 839, 5-(7-(5,6-dimethyl-1H-benzo[d][1,2,3]triazol-4-yl)-8-fluoro-2-((tetrahydro-1H-pyrrolizin-7a(5H)-yl)methoxy)pyrido[4,3-d]pyrimidin-4-yl)-N,N-dimethyl-5,6,7,8-tetrahydro-4H-pyrazolo[1,5-a][1,4]diazepine-2-carboxamide]
2820	2230	2060	1190	4270	2510	2200	2470	2830	–	–	Cc1cc2[nH]nnc2c(-c2ncc3c(N4CCCC5(CNC(=O)N5)C4)nc(OCC45CCCN4CCC5)nc3c2F)c1C (centres unmarked) [Example 856, 7-(7-(5,6-dimethyl-1H-benzo[d][1,2,3]triazol-4-yl)-8-fluoro-2-((tetrahydro-1H-pyrrolizin-7a(5H)-yl)methoxy)pyrido[4,3-d]pyrimidin-4-yl)-1,3,7-triazaspiro[4.5]decan-2-one]
3420	3690	3820	2670	8950	4440	4410	2720	4530	–	–	Cc1cc2[nH]ccc2c(-c2ncc3c(N4CCC[C@@](C)(O)C4)nc(OCC45CCCN4CCC5)nc3c2F)c1C [Example 871, (3R)-1-(7-(5,6-dimethyl-1H-indol-4-yl)-8-fluoro-2-((tetrahydro-1H-pyrrolizin-7a(5H)-yl)methoxy)pyrido[4,3-d]pyrimidin-4-yl)-3-methylpiperidin-3-ol]
579	375	199	40700	62300	201	58300	567	539	–	–	Cc1cc2[nH]cnc2c(-c2ncc3c(N4CCC[C@@](C)(O)C4)nc(OCC45CCCN4CCC5)nc3c2F)c1C [Example 888, (3R)-1-(7-(5,6-dimethyl-1H-benzo[d]imidazol-4-yl)-8-fluoro-2-((tetrahydro-1H-pyrrolizin-7a(5H)-yl)methoxy)pyrido[4,3-d]pyrimidin-4-yl)-3-methylpiperidin-3-ol]

Source: US20260015350A1, “AZAQUINAZOLINE PAN-KRAS INHIBITORS” (Mirati Therapeutics, Inc., priority 2022, published 2026)
